Assays:
[1] = system: dopaminergic (TH+) neurons derived from primary cultures of embryonic ventral mesencephalon; test: Spontaneous degeneration of dopaminergic neurons in primary cultures of embryonic ventral mesencephalon, TH+ neuron count at DIV 10; format: cell-based; conditions: for viability at 0.1 µM / viability at 1 µM / viability at 10 µM: Neuron, 240 h, read-out: TH+ neurons, % relative to the control ± standard error; for Neuroprotective activity, in words: survival percentage at 10 μM almost equal to that induced by db-cAMP at 1 mM
Description: The compounds of the invention were tested in a model of spontaneous degeneration of dopaminergic neurons derived from primary cultures of embryonic ventral mesencephalon according to the protocol described in the article by S. Guerreiro et a1. (2008). The primary cultures of embryonic ventral mesencephalon thus obtained are mixed cultures containing about 50% neuronal cells and 50% glial cells. Among the neuronal cells, dopaminergic neurons make up 3% of the total neurons, most of the neurons derived from these cultures being GABAergic. Concerning the glial cells, they mainly consist of astrocytes (>95% of the glial cells). These cultures are characterized by spontaneous, progressive and selective death of dopaminergic neurons as a result of a mechanism involving immature astrocytes and calcium dyshomeostasis (E. Rousseau et a1. (2013), D. Toulorge et a1. (2011)). The neuroprotective effect of the compounds of the invention was evaluated by counting dopaminergic (TH^+) neurons stained by tyrosine hydroxylase (TH) immunohistochemistry after 10 days of culture (DIV 10).

Aqueous solubility = format: physicochemical; conditions: aqueous medium (not further specified)
[2] = system: mouse model of Parkinson's disease treated with MPTP; test: MPTP mouse model of Parkinson's disease: striatum dopamine levels and dopamine turnover (HPLC, electrochemical detection); format: in vivo; conditions: MPTP mice
Description: (§1) The potential neuroprotective effects of Iac were evaluated by measuring striatum dopamine levels and dopamine turnover in the mouse model of Parkinson's disease treated with MPTP (1-methyl-4-phenyl-1,2,3,6-tetrahydropyridine), and by evaluating the number of dopaminergic neurons saved in the substantia nigra. Mice were treated with Iac (50 and 100 mg/kg, p.o., in 1% carboxymethyl cellulose and 0.5% Tween 80) for 11 consecutive days. MPTP (20 mg/kg; intraperitoneal route), or saline solution for the controls, was administered on treatment days 4 to 8. All mice were killed on day 12 following final administration of the treatment, then the striatal tissue was dissected for analysis. The effect of MPTP treatment on striatum dopamine depletion was analysed by high-pressure liquid chromatography (HPLC) in combination with electrochemical detection for measurement of levels of dopamine monoamine (DA), 3,4-dihydroxyphenylacetic acid (DOPAC), and homovanillic acid (HVA).

[3] = system: dopaminergic neurons of the substantia nigra; test: MPTP mouse model of Parkinson's disease: survival of TH+ dopaminergic neurons in the substantia nigra; format: in vivo; conditions: MPTP/Iac mice
Description: as §1
At the dose of 2×25 mg/kg/d (par os), the near-total survival of TH^+ neurons was observed. Indeed, in the group of mice treated with MPTP/Iac, survival was measured at 93±4% relative to the controls.

[4] = In vivo study of BBB crossing, HPLC-MS/MS of plasma and brain after IV injection; parameters: species or system CD-1 mice
Description: The goal of this study is to confirm, by HPLC coupled to mass spectrometry, the presence of compound Iac in the brain parenchyma after sub-chronic intravenous treatment in mice.
The study is performed with CD-1 mice.
A 0.5 mg/mL solution of compound Iac is prepared in physiological saline containing 10% Cremophor EL®. The same dose of this solution is administered intravenously to 6 mice (2 μL/g).
After 5 min, 3 mice are sacrificed. After 30 min, the other 3 mice are sacrificed.
Blood is drawn, and the plasma is separated by centrifugation. The brain is harvested after intracardiac perfusion. The samples are frozen and stored at −80° C. before treatment.
Plasma: 400 μL of each plasma sample is mixed with 1 mL of acetonitrile to precipitate proteins and extract compound Iac.
Brain: Each brain is ground in 400 μL of physiological saline. 800 μL of acetonitrile is added in order to extract compound Iac.
The treated samples are vortexed for 3 minutes and then placed in a sonicator again for 3 minutes. The precipitated proteins and the solid residues are sedimented by centrifugation (15,000 g, 5 minutes at 4° C.). The supernatants are transferred to a microplate to be analysed by HPLC-MS/MS.
Samples are analysed with the method described below, with detection and quantification, based on peak area, being performed by HPLC-MS/MS in MRM mode.
For the calculation of log [brain]/[plasma] to determine blood-brain barrier crossing, the mean plasma volume of a mouse is evaluated at 1.5 mL.

[5] = 50 mg/kg p.o., 11 consecutive days
[6] = 100 mg/kg p.o., 11 consecutive days

## c1cnc2ccc3nccnc3c2c1 [Iaa]
[1]
  viability at 0.1 µM: 25.7 ± 1.6%
  viability at 1 µM: 26.2 ± 1.7%
  viability at 10 µM: 30.6 ± 2.3%

## c1ccc(-c2cnc3ccc4ncccc4c3n2)cc1 [Iac, 3-phenyl-1,4,8-triazaphenanthrene]
Aqueous solubility
  solubility: < 10 µg/mL
[2]; [5]
  Decrease in the (DOPAC+HVA)/DA ratio: 30%
  Increase of striatum DA levels: 64%
[2]; [6]
  Decrease in the (DOPAC+HVA)/DA ratio: 28%
  Increase of striatum DA levels: 78%
  Increase of striatum HVA levels: 25%
[2]; 50 and 100 mg/kg p.o.
  Effect on DOPAC levels: no significant effect
[1]
  viability at 0.1 µM: 46.6 ± 2.8%
  viability at 1 µM: 64.7 ± 2.9%
  viability at 10 µM: 91 ± 3.7%
  Neuroprotective activity, in words: particularly high activity
[1]; in vitro
  Activity (concentration showing neuroprotective activity in vitro): 1 µM
  Concentration for optimal neuroprotective activity: 10 µM
[3]; 2×25 mg/kg/d per os
  Survival of TH+ neurons relative to the controls: 93±4%
[3]; 2×50 mg/kg/d per os
  Dopaminergic neuron survival relative to the controls: 81±4%
[4]; 5 min after IV injection of 1 mg/kg, mice
  Amount (nmol/brain): 5.19 ± 0.25 nmol/brain
[4]; 30 min after IV injection of 1 mg/kg, mice
  Amount (nmol/brain): 0.50 ± 0.07 nmol/brain
[4]; CD-1, brain and plasma, 5 min after IV injection of 1 mg/kg, mean plasma volume of a mouse evaluated at 1.5 mL, read-out: Log [brain]/[plasma]
  Kp at 5 min: 0.15 ± 0.05
[4]; CD-1, brain and plasma, 30 min after IV injection of 1 mg/kg, mean plasma volume of a mouse evaluated at 1.5 mL, read-out: Log [brain]/[plasma]
  Kp at 30 min: 0.02 ± 0.1
[4]; CD-1, mouse, plasma, 5 min after IV injection of 1 mg/kg, mice
  concentration at 5 min: 2470 ± 240 nM
[4]; CD-1, mouse, plasma, 30 min after IV injection of 1 mg/kg, mice
  concentration at 30 min: 320 ± 50 nM
[4]; after intravenous administration
  Blood-brain barrier crossing in vivo, in words: able to cross the BBB

## Clc1cnc2ccc3ncccc3c2n1 [Iad]
[1]
  viability at 0.1 µM: 27.4 ± 1.6%
  viability at 1 µM: 26.5 ± 1.6%
  viability at 10 µM: 33.8 ± 1.8%

## Oc1cccc(-c2cnc3ccc4ncccc4c3n2)c1 [Iae]
[1]
  viability at 0.1 µM: 24.7 ± 1.6%
  viability at 1 µM: 47.7 ± 2.6%
  viability at 10 µM: 99.3 ± 4.4%
  Neuroprotective activity, in words: particularly high activity

## COc1cc(-c2cnc3ccc4ncccc4c3n2)cc(OC)c1OC [Iaf]
[1]
  viability at 0.1 µM: 27.7 ± 1.6%
  viability at 1 µM: 46.8 ± 2.3%
  viability at 10 µM: 70.8 ± 3.5%

## c1cncc(-c2cnc3ccc4ncccc4c3n2)c1 [Iag]
[1]
  viability at 0.1 µM: 31.4 ± 1.7%
  viability at 1 µM: 48.3 ± 2.4%
  viability at 10 µM: 96.6 ± 4.5%
  Neuroprotective activity, in words: particularly high activity

## Fc1ccc(-c2cnc3ccc4ncccc4c3n2)cc1 [Iah]
[1]
  viability at 0.1 µM: 24.4 ± 1.4%
  viability at 1 µM: 32.8 ± 1.8%
  viability at 10 µM: 42.8 ± 2.2%

## c1ccc2cc(-c3cnc4ccc5ncccc5c4n3)ccc2c1 [Iaj]
[1]
  viability at 0.1 µM: 28.9 ± 1.8%
  viability at 1 µM: 42.8 ± 2.1%
  viability at 10 µM: 94.9 ± 3.5%
  Neuroprotective activity, in words: particularly high activity

## C#Cc1cnc2ccc3ncccc3c2n1 [Iak]
[1]
  viability at 0.1 µM: 38.2 ± 2.1%
  viability at 1 µM: 40.7 ± 2.6%
  viability at 10 µM: 7 ± 1.3%

## c1ccc2ncc(-c3cnc4ccc5ncccc5c4n3)cc2c1 [Iam]
[1]
  viability at 0.1 µM: 27.6 ± 2%
  viability at 1 µM: 46.7 ± 2.7%
  viability at 10 µM: 97.3 ± 3.6%
  Neuroprotective activity, in words: particularly high activity

## Cc1nc2ccc3ncccc3c2nc1-c1ccc2ccccc2c1 [Ibj]
[1]
  viability at 0.1 µM: 58.1 ± 2.8%
  viability at 1 µM: 59.2 ± 2.2%
  viability at 10 µM: 67.3 ± 2.5%

From patent publication US10550115B2, “1, 4, 8-triazaphenanthrene derivatives for the treatment of neurodegenerative disorders” (Institut Du Cerveau et de la Moëlle Epiniere, priority 2015, dated 2020)
